Data published in patent publication US20230117592A1 (SRI International, priority 2019, published 2023).
“And” between values parts separate entries of the source, which are not always exact repeats. Equal values may be shown once. Read-outs that look alike come from different tables or passages of the source.

What was measured:
12-LOX = molecular target: T1, 12-LOX (Homo sapiens, UniProt P18054); assay: 12-LOX fluorescent assay (in vitro lipoxygenase inhibition); type: biochemical
T1 sequence (P18054 1-663): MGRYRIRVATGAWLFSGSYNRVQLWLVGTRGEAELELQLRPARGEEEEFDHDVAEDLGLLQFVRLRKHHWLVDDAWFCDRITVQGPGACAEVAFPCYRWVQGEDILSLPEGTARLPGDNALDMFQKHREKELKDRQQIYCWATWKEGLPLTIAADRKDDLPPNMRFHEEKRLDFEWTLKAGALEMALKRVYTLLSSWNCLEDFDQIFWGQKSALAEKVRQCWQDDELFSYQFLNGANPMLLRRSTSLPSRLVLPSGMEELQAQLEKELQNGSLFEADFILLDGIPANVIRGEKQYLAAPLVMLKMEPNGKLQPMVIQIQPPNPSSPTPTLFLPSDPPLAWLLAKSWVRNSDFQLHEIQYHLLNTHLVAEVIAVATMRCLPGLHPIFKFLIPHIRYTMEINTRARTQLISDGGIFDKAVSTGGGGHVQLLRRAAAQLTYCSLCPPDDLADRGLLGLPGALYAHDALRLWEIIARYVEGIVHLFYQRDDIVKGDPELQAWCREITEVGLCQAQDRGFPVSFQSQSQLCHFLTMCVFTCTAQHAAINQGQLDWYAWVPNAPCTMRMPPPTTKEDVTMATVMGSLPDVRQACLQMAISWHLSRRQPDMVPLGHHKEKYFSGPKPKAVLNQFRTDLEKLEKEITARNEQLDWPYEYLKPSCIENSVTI
Procedure: 12-LOX/15-LOX Fluorescent Assay
The enzyme assay (100 ul) contained 50 mM Tris, pH 7.5, 0.05% Tween-20, 20 μM AA/LA, 1 μM DHR123, and 100 nM recombinant 12-LOX enzyme/50 nM recombinant 15-LOX enzyme. Inhibitors (dissolved in DMSO) were plated at 1 μL into 96-well assay microplates followed by a 40 μL addition of a solution containing 12-LOX/15-LOX enzyme. Enzyme was pre-incubated with compounds for 15 mins. The assay was initiated by the addition of a 40 μL substrate solution containing AA/LA, and 20μL addition of a solution containing DHR123. […] Percent inhibition was calculated for each compound dose for IC50 curve fitting using 4 Parameter Logistic Model or Sigmoidal Dose-Response Model.

5-LOX = molecular target: T2, 5-LOX (Homo sapiens, UniProt P09917); assay: 5-LOX fluorescent assay (in vitro lipoxygenase inhibition); type: biochemical; conditions: recombinant 5-LOX cell lysate, 20 μM AA, DHR123 fluorescence; several values in a cell = repeat determinations; read-out: IC50 (μM) values for in vitro lipoxygenase inhibition, 5-LOX
T2 sequence (P09917 1-674): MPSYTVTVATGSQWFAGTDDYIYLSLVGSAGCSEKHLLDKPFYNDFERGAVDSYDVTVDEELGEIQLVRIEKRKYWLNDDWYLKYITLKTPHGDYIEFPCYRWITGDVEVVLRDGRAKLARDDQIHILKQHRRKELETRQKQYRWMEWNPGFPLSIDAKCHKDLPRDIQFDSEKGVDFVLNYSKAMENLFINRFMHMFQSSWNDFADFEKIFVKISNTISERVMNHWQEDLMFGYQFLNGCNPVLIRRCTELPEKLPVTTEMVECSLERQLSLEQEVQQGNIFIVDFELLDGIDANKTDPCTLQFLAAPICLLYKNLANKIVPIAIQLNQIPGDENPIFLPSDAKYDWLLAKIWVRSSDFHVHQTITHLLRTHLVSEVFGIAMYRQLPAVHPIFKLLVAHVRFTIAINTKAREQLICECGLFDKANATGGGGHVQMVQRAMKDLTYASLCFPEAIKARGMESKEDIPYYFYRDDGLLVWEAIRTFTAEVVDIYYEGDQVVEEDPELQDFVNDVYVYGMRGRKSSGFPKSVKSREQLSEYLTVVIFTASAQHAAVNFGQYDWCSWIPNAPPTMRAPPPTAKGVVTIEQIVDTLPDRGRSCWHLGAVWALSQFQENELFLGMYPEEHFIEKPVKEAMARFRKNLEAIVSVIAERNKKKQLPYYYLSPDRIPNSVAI
Procedure: 5-LOX FI assay Fluorescent Assay
The enzyme assay (100 μL) contained 50 mM Tris, pH 7.5, 0.1 mM EDTA, 0.3 mM CaCl2, 20 μM AA, 100 μM ATP, 1 μM DHR123, and recombinant 5-LOX cell lysate (0.5 μL/100 μL). Inhibitors (dissolved in DMSO) were plated at 1 μL into 96-well assay microplates followed by a 40 μL addition of a solution containing 5-LOX enzyme. Enzyme was pre-incubated with compounds for 15 mins. The assay was initiated by the addition of a 40 μL substrate solution containing AA and ATP, and 20 μL addition of a solution containing DHR123. […] Percent inhibition was calculated for each compound dose for IC50 curve fitting using 4 Parameter Logistic Model or Sigmoidal Dose-Response Model.

[1] = 100 nM recombinant 12-LOX, 20 μM AA, DHR123 fluorescence, several values in a cell = repeat determinations, read-out: IC50 (μM) values for in vitro lipoxygenase inhibition, 12-LOX

| Structure (SMILES) | IC50 (12-LOX; [1]) | IC50 (5-LOX) | IC50 (12-LOX) [µM] |
| --- | --- | --- | --- |
| Fc1ccc(Nc2ccc(NCC3(CN4CCOCC4)COC3)c(C(F)(F)F)c2)cc1 | 0.04 µM | 0.06 µM |  |
| COc1ccc(CNc2cccc(N)c2OCCN(C)C)cc1 [SS20308-0025-01, 2-(2-(dimethylamino)ethoxy)-N^1-(4-methoxybenzyl)benzene-1,3-diamine] | 1.29 µM | 7.31 µM |  |
| CCOC(=O)c1ccc(Nc2ccccc2OCCn2cncn2)cc1 [SS20308-0033-01, ethyl 4-(2-(2-(1H-1,2,4-triazol-1-yl)ethoxy)phenylamino)benzoate] | 23.9 µM | 50.3 µM |  |
| COc1ccc(CNc2cccc(Nc3ccccc3)c2OCCN(C)C)cc1 [SS20308-0052-01, 2-(2-(dimethylamino)ethoxy)-N^1-(4-methoxybenzyl)-N^3-phenylbenzene-1,3-diamine] | 0.62 µM | 1.32 µM |  |
| COc1ccc(CNc2ccc3c(-c4ccccc4)cc(=O)[nH]c3c2OCCN(C)C)cc1 [SS20308-0053-01, 8-(2-(dimethylamino)ethoxy)-7-((4-methoxybenzyl)amino)-4-phenylquinolin-2(1H)-one] | 5.2 µM | 3.36 µM |  |
| CCOC(=O)c1ccc(Nc2cccc(Nc3ccccc3)c2OCCn2cncn2)cc1 [SS20308-0055-01, ethyl 4-(2-(2-(1H-1,2,4-triazol-1-yl)ethoxy)-3-(phenylamino)phenylamino)benzoate] | 1.64 µM | 3.33 µM |  |
| CN(C)CCOc1c(NCc2ccccc2)cccc1Nc1ncccc1Cl [SS20308-0071-01, N^1-benzyl-N^3-(3-chloropyridin-2-yl)-2-(2-(dimethylamino)ethoxy)benzene-1,3-diamine] | 4.9 µM | 5.73 µM |  |
| c1ccc(Nc2ccc(-c3ccccc3)c(NCCn3cncn3)c2)cc1 [SS20308-0095-01, N^2-(2-(1H-1,2,4-triazol-1-yl)ethyl)-N^4-phenylbiphenyl-2,4-diamine] |  | 0.35 µM | 0.18 |
| c1ccc(Nc2ccc(-c3ccccc3)c(OCCn3cncn3)c2)cc1 [SS20308-0132-01, 2-(2-(1H-1,2,4-triazol-1-yl)ethoxy)-N-phenyl-[1,1′-biphenyl]-4-amine] |  | 0.6 µM | 0.49 |
| Fc1c(Nc2ccccc2)ccc(-c2ccccc2)c1NCCn1cncn1 [SS20308-0148-01, N^2-(2-(1H-1,2,4-triazol-1-yl)ethyl)-3-fluoro-N^4-phenylbiphenyl-2,4-diamine] |  | 3.77 µM and 0.76 µM |  |
| c1ccc(Nc2ccc(NCCCn3cncn3)c(-c3ccccc3)c2)cc1 [SS20308-0151-01, N^2-(3-(1H-1,2,4-triazol-1-yl)propyl)-N^5-phenylbiphenyl-2,5-diamine] |  | 0.07 µM and 0.04 µM | 0.02 |
| Cc1cc(Nc2ccc(F)cc2Cl)ccc1NCC1(CN2CCCC2)COC1 [SS20308-0310-01, N^4-(2-chloro-4-fluorophenyl)-2-methyl-N^1-((3-(pyrrolidin-1-ylmethyl)oxetan-3-yl)methyl)benzene-1,4-diamine] |  | 0.11 µM and 0.14 µM and 0.1 µM and 0.19 µM and 0.29 µM |  |

Now from value to compound, other results behind:

| IC50 (12-LOX; [1]) | IC50 (5-LOX) | Structure (SMILES) | IC50 (12-LOX) [µM] |
| --- | --- | --- | --- |
| 3.37 µM | 7.23 µM | CN(C)CCOc1c(Nc2ccccc2)ccc2c(-c3ccccc3)cc(=O)[nH]c12 [SS20308-0072-01, 8-(2-(dimethylamino)ethoxy)-4-phenyl-7-(phenylamino)quinolin-2(1H)-one] |  |
| 0.24 µM | 0.55 µM | c1ccc(CNc2ccc(-c3ccccc3)c(NCCn3cncn3)c2)cc1 [SS20308-0096-01, N^2-(2-(1H-1,2,4-triazol-1-yl)ethyl)-N^4-benzyl-[1,1′-biphenyl]-2,4-diamine] |  |
| 0.25 µM | 0.24 µM | CN(C)CCNc1cc(Nc2ccccc2)ccc1-c1ccccc1 [SS20308-0130-01, N2-(2-(dimethylamino)ethyl)-N4-phenyl-[1,1′-biphenyl]-2,4-diamine] |  |
|  | 0.25 µM | CN(CCn1cncn1)c1cc(Nc2ccccc2)ccc1-c1ccccc1 [SS20308-0131-01, N2-(2-(1H-1,2,4-triazol-1-yl)ethyl)-N2-methyl-N4-phenyl-[1,1′-biphenyl]-2,4-diamine] |  |
| 0.14 µM | 0.22 µM | Cc1cccc(C)c1-c1ccc(Nc2ccccc2)cc1NCCn1cncn1 [SS20308-0133-01, N2-(2-(1H-1,2,4-triazol-1-yl)ethyl)-2′,6′-dimethyl-N4-phenyl-[1,1′-biphenyl]-2,4-diamine] |  |
| 1.49 µM | 2.32 µM | O=C(CCn1cncn1)Nc1cc(Nc2ccccc2)ccc1-c1ccccc1 [SS20308-0134-01, N-(4-(phenylamino)-[1,1′-biphenyl]-2-yl)-3-(1H-1,2,4-triazol-1-yl)propanamide] |  |
| 20.8 µM | 25.7 µM | O=C(Nc1ccc(-c2ccccc2)c(NCCn2cncn2)c1)c1ccccc1 [SS20308-0135-01, N-(2-((2-(1H-1,2,4-triazol-1-yl)ethyl)amino)-[1,1′-biphenyl]-4-yl)benzamide] |  |
| 0.09 µM and 0.17 µM | 0.18 µM and 0.34 µM | Fc1ccc(Nc2ccc(-c3ccccc3)c(NCCn3cncn3)c2)cc1 [SS20308-0142-01, N^2-(2-(1H-1,2,4-triazol-1-yl)ethyl)-N^4-(4-fluorophenyl)biphenyl-2,4-diamine] |  |
| 0.33 µM | 0.94 µM | OCc1ccccc1-c1ccc(Nc2ccccc2)cc1NCCn1cncn1 [SS20308-0143-01, (2′-(2-(1H-1,2,4-triazol-1-yl)ethylamino)-4′-(phenylamino)biphenyl-2-yl)methanol] |  |
| 0.18 µM | 0.4 µM | COc1ccccc1-c1ccc(Nc2ccccc2)cc1NCCn1cncn1 [SS20308-0144-01, N^2-(2-(1H-1,2,4-triazol-1-yl)ethyl)-2′-methoxy-N^4-phenylbiphenyl-2,4-diamine] |  |
| 0.02 µM | 30 nM and 50 nM (2×) | c1ccc(CNc2ccc(NCCn3cncn3)c(-c3ccccc3)c2)cc1 [SS20308-0145-01, N^2-(2-(1H-1,2,4-triazol-1-yl)ethyl)-N^5-benzyl-[1,1′-biphenyl]-2,5-diamine] |  |
| 4.02 µM | 3.77 µM | O=C(Nc1ccc(NCCn2cncn2)c(-c2ccccc2)c1)c1ccccc1 [SS20308-0146-01, N-(6-((2-(1H-1,2,4-triazol-1-yl)ethyl)amino)-[1,1′-biphenyl]-3-yl)benzamide] |  |
| 0.14 µM | 0.17 µM | Clc1ccc(-c2ccc(Nc3ccccc3)cc2NCCn2cncn2)cc1 [SS20308-0147-01, N^2-(2-(1H-1,2,4-triazol-1-yl)ethyl)-4′-chloro-N^4-phenylbiphenyl-2,4-diamine] |  |
| 0.3 µM | 0.63 µM | OCCc1ccccc1-c1ccc(Nc2ccccc2)cc1NCCn1cncn1 [SS20308-0149-01, 2-(2′-(2-(1H-1,2,4-triazol-1-yl)ethylamino)-4′-(phenylamino)biphenyl-2-yl)ethanol] |  |
| 0.2 µM | 0.71 µM | c1ccc(Nc2cccc(-c3ccccc3)c2NCCn2cncn2)cc1 [SS20308-0153-01, N^2-(2-(1H-1,2,4-triazol-1-yl)ethyl)-N^3-phenylbiphenyl-2,3-diamine] |  |
